What was measured:
Hepatitis C virus [1] = assay: Antiviral activity against HCV genotype 1a assessed as replicon RNA level measured after 3 days by real-time PCR method; format: functional, organism-based, Hepacivirus hominis; conditions: subtype 1a, 72 h
Hepatitis C virus [2] = assay: Antiviral activity against HCV genotype 1b assessed as replicon RNA level measured after 3 days by real-time PCR method; format: functional, organism-based, Hepacivirus hominis; conditions: 72 h
Hepatitis C virus [3] = assay: Antiviral activity against HCV genotype 2a assessed as replicon RNA level measured after 3 days by real-time PCR method; format: functional, organism-based, Hepacivirus hominis; conditions: 72 h
Hepatitis C virus [4] = assay: Antiviral activity against HCV genotype 2b assessed as replicon RNA level measured after 3 days by real-time PCR method; format: functional, organism-based, Hepacivirus hominis; conditions: 72 h
Hepatitis C virus [5] = assay: Antiviral activity against HCV genotype 3a assessed as replicon RNA level measured after 3 days by real-time PCR method; format: functional, organism-based, Hepacivirus hominis; conditions: 72 h
Hepatitis C virus [6] = assay: Antiviral activity against HCV genotype 4a assessed as replicon RNA level measured after 3 days by real-time PCR method; format: functional, organism-based, Hepacivirus hominis; conditions: 72 h
Hepatitis C virus [7] = assay: Antiviral activity against HCV genotype 1a harboring NS5A Y93H mutant assessed as replicon RNA level measured after 3 days by real-time PCR method; format: functional, organism-based, Hepacivirus hominis; conditions: subtype 1a, 72 h
Hepatitis C virus [8] = assay: Antiviral activity against HCV genotype 1a harboring NS5A L31V mutant assessed as replicon RNA level measured after 3 days by real-time PCR method; format: functional, organism-based, Hepacivirus hominis; conditions: subtype 1a, 72 h
[9] = Selectivity ratio of EC50 for HCV genotype 2b to EC50 for HCV genotype 1a; format: functional
Hepatitis C virus [10] = assay: Selectivity ratio of EC50 for HCV genotype 1a harboring NS5A Y93H mutant to EC50 for HCV genotype 1a; format: functional, Hepacivirus hominis, subtype 1a
Hepatitis C virus [11] = assay: Selectivity ratio of EC50 for HCV genotype 1a harboring NS5A L31V mutant to EC50 for HCV genotype 1a; format: functional, Hepacivirus hominis, subtype 1a
[12] = (§1) Oral bioavailability in Sprague-Dawley rat at 5 mg/kg; format: ADME, organism-based; conditions: Sprague-Dawley, in vivo
Rattus norvegicus [13] = assay: AUC in Sprague-Dawley rat at 5 mg/kg, po; format: ADME, organism-based; conditions: in vivo
[14] = Half life in Sprague-Dawley rat at 2 mg/kg, iv or 5 mg/kg, po; format: ADME, organism-based; conditions: in vivo
Rattus norvegicus [15] = assay: as §1; format: ADME, organism-based; conditions: in vivo
Canis familiaris [16] = assay: AUC in beagle dog at 5 mg/kg, po; format: ADME, organism-based, Canis lupus familiaris; conditions: in vivo
[17] = Half life in beagle dog at 2 mg/kg, iv or 5 mg/kg, po; format: ADME, organism-based, Canis lupus familiaris; conditions: in vivo
Canis familiaris [18] = assay: Oral bioavailability in beagle dog at 5 mg/kg; format: ADME, organism-based, Canis lupus familiaris; conditions: in vivo

| Structure (SMILES) | EC50 (Hepatitis C virus [1]) [nM] | EC50 (Hepatitis C virus [2]) [nM] | EC50 (Hepatitis C virus [3]) [nM] | EC50 (Hepatitis C virus [4]) [nM] | EC50 (Hepatitis C virus [5]) [nM] | EC50 (Hepatitis C virus [6]) [nM] | EC50 (Hepatitis C virus [7]) [nM] | EC50 (Hepatitis C virus [8]) [nM] | Ratio EC50 [9] | Ratio EC50 (Hepatitis C virus [10]) | Ratio EC50 (Hepatitis C virus [11]) | bioavailability [12] [%] | AUC (Rattus norvegicus [13]) [µM·h] | half-life [14] [h] | F (Rattus norvegicus [15]) [%] | AUC (Canis familiaris [16]) [µM·h] | half-life [17] [h] | F (Canis familiaris [18]) [%] |
| --- | --- | --- | --- | --- | --- | --- | --- | --- | --- | --- | --- | --- | --- | --- | --- | --- | --- | --- |
| COC(=O)N[C@H](C(=O)N1CCC[C@H]1c1ncc(-c2ccc3c(c2)OC(c2cc(OC)cc(OC)c2)n2c-3cc3cc(-c4cnc([C@@H]5CCCN5C(=O)[C@@H](NC(=O)OC)C(C)C)[nH]4)ccc32)[nH]1)C(C)C (mixture of isomers) | 0.003 | 0.002 | 0.002 | 0.2 | 0.02 | 0.01 | 0.8 | 0.3 | 67 | 267 | 100 | 0 | – | – | – | – | – | – |
| COC(=O)N[C@H](C(=O)N1CCC[C@H]1c1ncc(-c2ccc3c(c2)OC(c2cccc(OC)c2)n2c-3cc3cc(-c4cnc([C@@H]5CCCN5C(=O)[C@@H](NC(=O)OC)C(C)C)[nH]4)ccc32)[nH]1)C(C)C (mixture of isomers) | 0.004 | 0.002 | 0.004 | 0.4 | 0.02 | 0.002 | < 2 | 0.04 | – | – | – | – | 0.52 | 4.6 | 6 | 5 | 7.9 | 34 |
